According to US6942963B1, “Methods for identifying treatments for neurotoxicity in Alzheimer's disease caused by β-amyloid peptides” (Massachusetts Institute of Technology, priority 1997, dated 2005):
“Also recorded” adds a separate entry of the source. Read-outs that look alike come from different tables or passages of the source. Non-standard residues stand in square brackets, D forms with d. Residues, ends and D or L forms follow the SMILES beside them.

Columns and labels:
[1] = system: hNT cells; experiment: Membrane depolarization of hNT cells by aggregated Aβ1-42 (DiBAC4(3) fluorescence); format: cell-based, human; conditions: for % ΔF in presence of addition / Δ EM in presence of addition: aggregated Aβ1-42 20 μM plus the named addition, [Ca^2+] 2 mM, Na^+; for inhibition of membrane depolarization by aggregated Aβ1-42: simultaneous presence, separately or together, summary statement
Method: Changes in membrane potential were measured using the fluorescent potentiometric probe DiBAC4(3), (Molecular Probes, Inc., Eugene, Oreg.). This dye, bis-(1,3-dibutylbarbituric acid)trimethine oxonol, detects membrane depolarization, because it enters depolarized cells and binds to intracellular proteins or membranes. […] Hyperpolarization results in extrusion of the anionic dye and thus a decrease in fluorescence. Our measurements use two dyes, fura-2 and DiBAC4(3), since these dyes have excitation wavelengths that are far apart, but have similar emission wavelengths. DiBAC4(3) was added to fura-2AM loaded hNT cells at a concentration of 100 nM in Tyr2Ca. Rapidly alternating measurements of fura-2 (excited at 340 & 380 nm) and DiBAC4(3) (excited at 490 nm) were performed using emission at 516 nm. Both dyes were measured using the special “Fura2-Fluo3” filter set 7400 from Chroma Technology (Brattleboro, Vt.), a Zeiss Axiovert 100 inverted microscope and a photometry system (model “Delta Ram” from Photon Technology International, Inc., Monmouth Junction, N.J.).
The bis-oxonol dye DiBAC4(3) was used as an indicator of transmembrane electrical potential changes (Langheinrich and Daut, J. Physiol. 502:397-408, 1997) when our hNT cells were treated with, for example, the β-amyloid peptide Aβ1-42. The use of this dye enabled us to monitor groups of 5-15 neurons, rather than single cells as would be the case with patch clamping methods. We expected great variability from cell to cell, as was found in our earlier patch clamp work (Sanderson et al., Brain Res. 744:7-14, 1997). The method has been used by many laboratories for the determination of membrane potentials in different cell types. Fluorescence is increased upon membrane depolarization as more dye enters the cytosol, resulting in increased binding to proteins (Braiuner et al., Biochim. Biophys. Acta 771:[…], 1984). Partitioning of bis-oxonol dye between the plasma membrane and the cytosol follows the Nernst equation (Langheinrich and Daut, 1997). Unless otherwise indicated, all measurements were carried out in Tyrode's solution containing 2 mM Ca.
We calibrated the gross fluorescence as a function of membrane potential by treating a culture of hNT neurons, bathed in Tyrode's 2Ca buffer with the usual 3 mM K^+, containing 97 nM DiBAC4(3), with Tyrode's 2Ca buffer containing 40 mM KCl. We measured the gross fluorescence at excitation=490 nm and emission=510 nm for the depolarization by KCl and for depolarization by the Aβ1-42 peptide. We used the formula proposed by Langheinrich and Daut, 1997: % ΔF=(1−Fmin/Fmax)*100=ΔEMmV
where Fmin=fluorescence before treatment, Fmax=fluorescence during treatment, ΔEM mV is the change in membrane potential brought about by the treatment. The calculation based on the expected depolarization by changing from 3 mM KCl to 40 MM KCl gave a value of ΔEM=3.8 mV/1% ΔF.
Groups of hNT neuronal cells (5-17) were exposed to Aβ1-42 (20 μM) that had been incubated at 37° C. for 48 hours; 97 nM DiBAC4(3) was present. Fluorescence was measured as described above; Ex=490 nm, Em=510 nm.

[2] = system: βAP25-35-induced calcium influx, hNT cells; experiment: βAP25-35-induced calcium influx in hNT cells: effect of channel antagonists and decoy peptides; format: cell-based, human; conditions: for effect on increase in internal calcium concentration due to βAP25-35: decoy peptide mixed with βAP25-35 at ratio 1:1 (20 μM+20 μM), hNT cells; for effect on βAP25-35 calcium influx at molar ratio: filtered stocks
[3] = system: βAP1-42-induced calcium influx, hNT cells; experiment: βAP1-42 (Aβ1-42) aggregate-induced calcium influx in hNT cells: effect of decoy peptides and channel blockers; format: cell-based, human; conditions: for inhibition of calcium influx caused by aggregated Aβ1-42: summary statement, concentration not given; for effect on βAP1-42 calcium influx: βAP1-42 25 μM coincubated with equimolar decoy peptide at 37° C. for 44 hours
[4] = system: hNT cells; experiment: Internal calcium concentration [Ca2+]int in hNT cells (fura-2) on exposure to β-amyloid peptide or test agent alone; format: cell-based, human; conditions: hNT cells, decoy peptide alone at 20 μM, filtered stocks, Tyrode's/2 mM Ca
[5] = format: physicochemical; conditions: water
[6] = system: voltage-gated calcium channels; experiment: Previous patch-clamp experiments on β-amyloid peptide calcium influx; format: cell-based
[7] = biological target: T1, βAP25-35 (Homo sapiens, UniProt P05067); experiment: Aggregation rate of βAP25-35 by light scattering at 500 nm; format: biochemical; conditions: decoy peptide at approximately equimolar concentration, Tyrode's/2 mM Ca^2+, light scattering 500 nm
T1 construct: made in house; host or cells: chemical peptide synthesis (BioPolymers Laboratory, MIT), HPLC purified

[8] = biological target: T2, βAP1-42 (Homo sapiens, UniProt P05067); experiment: Aggregation rate of βAP1-42 by light scattering at 500 nm; format: biochemical; conditions: decoy peptide at 1:1 molar ratio, Tyrode's/2 mM Ca^2+, light scattering 500 nm
T2 construct: βAP1-42 (Aβ1-42); purchased Quality Control Biochemicals; host or cells: synthetic peptide
T2 sequence (P05067 672-713): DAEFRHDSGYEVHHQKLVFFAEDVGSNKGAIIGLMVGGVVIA

Compound	% ΔF in presence of addition [1]	Δ EM in presence of addition [1]	inhibition of membrane depolarization by aggregated Aβ1-42 [1]	inhibition of calcium influx caused by aggregated Aβ1-42 [3]	effect on increase in internal calcium concentration due to βAP25-35 [2]	effect of decoy peptide by itself on cytosolic calcium concentrations [4]	effect on aggregation rate of βAP25-35 [7]	effect on βAP1-42 calcium influx ([3]; hNT cells)	further results
N#Cc1cc2c(cc1[N+](=O)[O-])=NC(=O)C(=O)N=2 [CNQX, 6-cyano-7-nitroquinoxaline-2,3-dione]	17.0%	+64.6 mV	not inhibited	inhibited					effect on membrane depolarization (DiBAC4(3) fluorescence plateau) by aggregated Aβ1-42 ([1]; hNT cells, CNQX (20 μM) added after Aβ1-42aggr): little change in fluorescence; also recorded: remained unchanged; also recorded: did not significantly change fluorescence; [Ca^2+]int when antagonist added after βAP25-35 exposure ([2]; cells first exposed to 21 μM βAP25-35 (270% of control), then βAP25-35 plus CNQX 22 μM): fell to control levels; block of calcium influx into hNT neuronal cells caused by βAP25-35 ([2]; concentration not stated): can be blocked; effect on βAP25-35-induced calcium influx ([2]; βAP25-35 21 μM, CNQX at 22 μM, applied together): completely prevented; effect on calcium influx / cytosolic calcium caused by aggregated Aβ1-42 ([3]; hNT cells, aggregated Aβ1-42, 20 μM CNQX added after desensitization): completely inhibited; also recorded: lowers the remaining calcium level to the original control value
CC[C@@H](C)[C@@H](N)C(=O)N[C@H](C)C(=O)N[C@H](C)C(=O)NCC(=O)N[C@@H](C(=O)N[C@@H](C(=O)NCC(=O)NCC(=O)NCC(=O)O)[C@H](C)O)[C@H](C)CC [DP1, ^+NH3-IAAGITGGG-COO^−] (H-[dI][dA][dA]G[dI][dT]GGG-OH)					reduced or abolished the increase in the internal calcium concentration	raise cytosolic calcium concentrations somewhat			solubility [5]: water soluble
[Cl][Cd][Cl] [cadmium chloride]									effect on membrane depolarization by aggregated Aβ1-42 [1]: did not prevent membrane depolarization; block of β-amyloid peptide calcium influx [6]: did not block the calcium influx
D-AP5	10.4%	+39.5 mV	not inhibited	inhibited					effect on membrane depolarization by aggregated Aβ1-42 ([1]; hNT cells, D-AP5 50 μM): did not interfere with the depolarization phenomenon; also recorded: does not block membrane depolarization; effect on calcium influx caused by aggregated Aβ1-42 ([3]; hNT cells, aggregated 20 μM Aβ1-42, D-AP5 50 μM): largely, but not completely, abolished calcium influx; also recorded: does inhibit calcium influx
^+NH3-TVIR^+TIAAA-COO^− (TVIRTIAAA) [DP8]					reduced or abolished the increase in the internal calcium concentration	no effect on cytosolic calcium concentrations	did not reduce the aggregation rate of βAP25-35	reduced or abolished the effect of βAP1-42 on the calcium influx	effect on βAP25-35 calcium influx at molar ratio ([2]; DP8:βAP25-35 0.2:1 (5 mM DP8+20 mM βAP25-35)): modestly reduced; effect on βAP25-35 calcium influx at molar ratio ([2]; DP8:βAP25-35 1:1 (10 mM DP8+10 mM βAP25-35)): reduce or abolish the effect of the β-amyloid peptide; effect on βAP25-35 calcium influx at molar ratio ([2]; DP8:βAP25-35 2:1 (20 mM DP8+11 mM βAP25-35)): reduce or abolish the effect of the β-amyloid peptide
^+NH3.T.P.I.R^+.T.P.A.P.A.COO^− (H-[dT][dP][dI][dR][dT][dP][dA][dP][dA]-OH; also: modified) [DP16]							reduced the aggregation rate of βAP25-35	reduced or abolished the effect of βAP1-42 on the calcium influx	reduction of aggregation rate of βAP1-42 [8]: about 50%
